Reference: patent US20100120788A1, “IDENTIFICATION OF POLYNUCLEOTIDES FOR […] OF COMPOUNDS THAT […] WITH AND/OR MODULATE PROTEIN TYROSINE KINASES AND/OR PROTEIN TYROSINE KINASE […] IN PROSTATE CELLS” (Bristol-Myers Squibb Company, priority 2007, published 2010)

How the values were obtained:
[1] = test system: imatinib-resistant BCR-ABL mutants; conditions: number of mutants of those tested; cited from earlier work
[2] = test system: secreted uPA protein in PC3 cells; assay: uPA protein ELISA assay of culture medium; format: cell-based, human; conditions: different doses, 24 h, per 50,000 viable cells
Text: FIG. 3. PLAU gene expression and regulation by dasatinib analyzed at mRNA and protein levels. (A) Differential baseline expression of PLAU gene between resistant (R, in black) and sensitive (S, in red) cell lines. The X-values are the expression level in log2-scale. The resistant cell line expressing high level of PLAU was WPMY1 and the sensitive cell line expressing low level of PLAU was LNCaP. (B) Down-regulation of PLAU mRNA level by dasatinib-treatment in 5 sensitive cell lines. The cells were treated with 100 nM dasatinib (+D) or DMSO (Ctrl) for 48 hours. The p value was 0.048 in paired t-test, indicating a significant reduction of PLAU mRNA following dasatinib treatment. (C) Correlation between dasatinib-induced PLAU mRNA down-regulation with the sensitivity of cell lines to dasatinib. […] The amount of uPA protein secreted into the culture medium by 50,000 viable cells was assessed by ELISA assay. […]
Cell were seeded in 24-well plates at density of 25,000 cells/well. […] Total number of cells were also quantitated using a cell counter, and the number of viable cells were assessed with Trypan Blue. The amount of uPA protein in the supernatant was determined using the uPA ELISA kit (America Diagnostica, Stamford, Conn.), and the concentrations of uPA secreted by 50,000 viable cells into the medium were calculated.

Row | SMILES | imatinib-resistant BCR-ABL mutants against which significantly active [1] | amount of uPA protein secreted into the growth medium [2]
1 | Cc1cn(-c2cc(NC(=O)c3ccc(C)c(Nc4nccc(-c5cccnc5)n4)c3)cc(C(F)(F)F)c2)cn1 [AMN107] | 32/33 | 
2 | CC(=O)O[C@H]1C(=O)[C@@]2(C)[C@H]([C@H](OC(=O)c3ccccc3)[C@]3(O)C[C@H](OC(=O)[C@H](O)[C@@H](NC(=O)c4ccccc4)c4ccccc4)C(C)=C1C3(C)C)[C@]1(OC(C)=O)CO[C@@H]1C[C@@H]2O [TAXOL®] |  | did not see a dose-dependent reduction
